Assay results reported in US20090232853A1, “TREATMENT OF LAMINITIS” (priority 2005, published 2009).

How the values were obtained:
ponies = assay: effect of dietary fructan carbohydrates on normal and laminitic ponies; type: in vivo
Text: Eleven adult, native breed ponies were used in the diet study; 5 normals and 6 predisposed to laminitis (asymptomatic at the time of the study). A basal hay diet was fed for 2 weeks, prior to the inclusion of inulin (sourced from chicory root; 3 g/kg body weight per day), fed in 3 equal feeds. The daily forage ration also included ⅔ hay, by weight, and ⅓ Readigrass® (to act as a source of amino acids). Fecal and blood samples were taken during both diets to measure amine concentration (by HPLC and LC-MS, respectively) and fecal pH.

[1] = tested on: Tyrosine decarboxylase (TDC); assay: inhibition of decarboxylase activity; type: biochemical; conditions: tyrosine to tyramine by TDC
Text: Tyrosine decarboxylase (TDC) decarboxylases tyrosine to tyramine.

[2] = tested on: equine digital blood vessels; assay: isolated blood vessel work, isometric tension recording
Text: The coronary band veins and the distal artery were dissected from equine hind limbs obtained from abattoir collections (animals euthanased for non related reasons), cut into rings of approximately 3 mm in length and prepared for isometric tension recording—a method established in the laboratory for looking at endothelium intact responses of equine digital.

[3] = tested on: streptococci and lactobacilli in equine caecal contents; assay: in vitro model of carbohydrate overload: enumeration of caecal streptococci and lactobacilli; set-up: species or system horses; conditions: virginiamycin 1 mg/100 ml, with corn starch or inulin
Protocol: Use of an in vitro model of carbohydrate overload to study the change in populations of caecal streptococci and lactobacilli and to establish whether certain species of these bacteria were capable of producing vasoactive amines from amino acids.
Caecal contents from 10 horses were divided into aliquots and incubated anaerobically with either corn starch or inulin (fructan; both 1 g 100 ml). Samples were taken at 6 h intervals over a 24 h period for enumeration of streptococci, lactobacilli and Gram-negative anaerobes by a dilution method onto standard selective growth media. […]
Effects of carbohydrate overload on numbers of (a) streptococci, (b) lactobacilli and (c) Gram-negative anaerobes in equine caecal contents incubated anaerobically in vitro. […] Bacterial numbers in each aliquot at 6 h intervals were determined by serial dilution of caecal contents in sterile RPS plated onto selective growth medium. […]
Effects of virginiamycin and calcium hydrogen-phosphate on numbers of Streptococcus and Lactobacillus spp. in equine caecal contents induced by incubation with starch or inulin. […] Bacterial numbers were measured at 0 and 24 h, expressed as CFU/ml, and the magnitude of the change over this period was calculated by dividing the number of bacteria present at 24 h by the initial figure (geometric mean±s.e.m. of estimates taken from 4 separate experiments).

[4] = inulin diet vs basal hay diet, FIG. 12

## inulin
ponies; inulin 3 g/kg body weight per day in 3 feeds, 5 normal and 6 laminitis-predisposed ponies
  signs of laminitis: No animal showed any signs of laminitis
ponies; [4]
  increase in tryptamine concentration: 58.6%
  increase in tyramine concentration: 23.3%

## NC(CO)C(=O)NNCc1ccc(O)c(O)c1O (stereo not drawn) [benserazide]
[1]
  production of tyramine: inhibited

## O=c1c(-c2ccc(O)cc2)coc2cc(O)cc(O)c12 [genestin]
[2]; flavonoid added to the medium, response to Tryptamine, FIG. 15
  reduction of contraction of digital veins in response to vasoactive amines: 30%

## virginiamycin
[3]
  effect on carbohydrate-induced increases in numbers of streptococci and lactobacilli: abrogated

## CC(=O)N[C@@H](CS)C(=O)O [NAC, N-acetyl cysteine]
[2]; antioxidant added to the medium, vs control, FIG. 14
  relaxation of isolated digital blood vessels: increase the relaxation above that of the control
[2]; pre incubation in the medium, response to Tryptamine, FIG. 15
  contraction of digital veins in response to vasoactive amines: reduced contraction

## C[C@@](Cc1ccc(O)c(O)c1)(NN)C(=O)O [carbidopa]
[1]
  production of tyramine: inhibited
